Results as given in the supplement of paper PMC3974653.
Structures can show the parent of a compound that is named as a salt.

What follows are compounds tested on MTT (mouse pheochromocytoma) (assay: IC50 of cell viability (ATP content)). Details: (24 or 48 h).
Summary of the method: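 Each well of a white 1536-well plate received 5 µl of MTT mouse pheochromocytoma cells at 200,000 cells/ml in DMEM containing 5% FBS and 1% horse serum. After overnight culture at 37°C, 5% CO2, cells were exposed for 24 or 48 hrs to 23 nl of library compound in DMSO, pinned at 8 final concentrations from 0.5 nM to 46 µM. CellTiter-Glo luminescence was read after 15 minutes, and IC50 was obtained from a four-parameter logistic fit of signals normalised to positive-control and DMSO wells.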

Row | Structure (SMILES) | IC50 of cell viability [µM]
1 | CC(=O)Oc1cccc2c1C(=O)c1c(OC(C)=O)cc(C(=O)O)cc1C2=O [DIACERIN] | > 46
2 | OCC(O)COc1ccc(Cl)cc1 (stereo not given) [3-(4-CHLOROPHENOXY)-1,2-PROPANEDIOL] | > 46
3 | CNC(C)[C@@H](O)c1ccc(O)cc1 (stereo not given in full) [P-HYDROXYEPHEDRINE HYDROCHLORIDE] | > 46
4 | COC1=C(N2CCNC(C)C2)C(=CC3=C1N(\C=C(C(O)=O)/C3=O)C4CC4)F (stereo not given) [GATIFLOXACIN] | > 46
5 | CCOC(=O)c1ncn2c1CN(C)C(=O)c1cc(F)ccc1-2 [FLUMAZENIL] | > 46
6 | CC(C)C(Br)C(=O)NC(N)=O (stereo not given) [Bromisovalum] | > 46
7 | CCCC(=O)O[C@@]1([C@@H](C)C[C@H]2[C@@H]3CCC\4=C\C(=O)\C=C/[C@@]4(C)[C@@]3(F)[C@H](O)C[C@]12C)C(=O)COC(=O)CC [Antebate] | > 46
8 | C[C@]\12CCC(=O)\C=C1CC[C@@H]3[C@@H]2CC[C@@]4(C)[C@H]3CC[C@]4(O)C(=O)CO [Cortexolone] | > 46
9 | C[N+](C)(C)CCOC(N)=O [CARBAMYLCHOLINE] | > 46
10 | CCCNC(=O)N[S+](=O)([O-])c1ccc(Cl)cc1 [Chlorpropamide] | > 46
11 | CN1CCN(C2=Nc3ccccc3Sc3ccc(Cl)cc32)CC1 [Clothiapine] | > 46
12 | Cc1nnc2n1-c1ccc(Cl)cc1C(c1ccccc1)=NC2 [alprazolam] | > 46
13 | CCN(CC)CC(=O)Nc1c(C)cccc1C [LIDOCAINE] | > 46
14 | C=CCOC(Cn1ccnc1)c1ccc(Cl)cc1Cl (stereo not given) [Imazalil sulphate] | > 46
15 | [Na+].NC(=O)C1=CC=[N+](C\C2=C(\[N@]3[C@@H](SC2)[C@H](NC(=O)[C@H](C4=CC=CC=C4)[S]([O-])(=O)=O)C3=O)C([O-])=O)C=C1 [Cefsulodin sodium salt] | > 46
16 | CN1CCC(N(Cc2cccs2)c2ccccc2)CC1 [Thenalidine] | > 46
17 | C/C=C/C=N/NC(=O)c1ccncc1 [Crotoniazida] | > 46
18 | CCOC(=O)[C@H](CCc1ccccc1)N[C@@H](C)C(=O)N1CCC[C@H]1C(=O)O [Enalaprila] | > 46
19 | Cc1ncc[nH]1 [2-Methylimidazole] | > 46
20 | CCCCC(=O)O[C@]1(C(=O)CO)[C@H](C)C[C@H]2[C@@H]3CCC4=CC(=O)C=C[C@]4(C)[C@@]3(F)[C@@H](O)C[C@@]21C [DEXAMETHASONE VALERATE] | > 46
21 | C[C@H](NC(C)(C)C)C(=O)c1cccc(Cl)c1 [Bupropion hydrochloride] | > 46
22 | NC(=O)C[S+]([O-])C(c1ccccc1)c1ccccc1 (stereo not given) [MODAFINIL] | > 46
23 | O=C(O)c1ccccn1 [CHROMIUM PICOLINATE] | > 46
24 | COC1=C(OC)C(=O)C(C/C=C(\C)CC/C=C(\C)CC/C=C(\C)CC/C=C(/C)CC/C=C(\C)CC/C=C(\C)CC/C=C(\C)CC/C=C(\C)CC/C=C(\C)CCC=C(C)C)=C(C)C1=O [Coenzyme Q10] | > 46
25 | C[C@@H]1C[C@@H]2[C@H]3C[C@@H](F)\C4=C\C(=O)\C=C/[C@]4(C)[C@@]3(Cl)[C@@H](O)C[C@@]2(C)[C@@H]1C(=O)COC(=O)C(C)(C)C [Clocortolone pivalate] | > 46
26 | Cl.NCCc1cc(O)c(O)cc1O [OXIDOPAMINE HYDROCHLORIDE] | > 46
27 | O=C(CCCN1CCC(n2c(=O)[nH]c3ccccc32)CC1)c1ccc(F)cc1 [Benperidol] | > 46
28 | C[N+](C)(C)CCCCCC[N+](C)(C)C [HEXAMETHONIUM] | > 46
29 | CO[C@@H]1[C@@H](OC2OC(C)C(OC3CC(C)(O)C(OC(=O)CC(C)C)C(C)O3)C(N(C)C)C2O)[C@@H](CC=O)C[C@@H](C)C(=O)C=CC2O[C@H]2C[C@@H](C)OC(=O)C[C@H]1OC(C)=O (stereo not given in full) [CARBOMYCIN] | > 46

Continued, values first:

Row | IC50 of cell viability [µM] | Structure (SMILES)
30 | > 46 | CC1CC2C(CC[C@]3(C)C2CC[C@@]3(OC(C)=O)C(C)=O)[C@]\4(C)CCC(=O)\C=C14 (stereo not given in full) [MEDROXYPROGESTERONE ACETATE]
31 | > 46 | O=P(O)(O)OP(=O)(O)OP(=O)(O)O.[NaH] [SODIUM TRIPOLYPHOSPHATE]
32 | > 46 | COc1ccc(CN(CCN(C)C)c2ncccn2)cc1.Cl [THONZYLAMINE HYDROCHLORIDE]
33 | > 46 | Cc1cccc(C)c1NC(=O)NC1=CCCN1C [Xilobam]
34 | > 46 | Nc1ccc([S+](=O)([O-])Nc2nccs2)cc1 [Sulfathiazole]
35 | > 46 | C[C@@H](C(=O)O)c1ccc(C2CCCCC2)c2ccccc12 [Quadrisol]
36 | > 46 | CC1=C(C/C=C(\C)CCCC(C)CCCC(C)CCCC(C)C)C(=O)c2ccccc2C1=O (stereo not given) [Phytonadione]
37 | > 46 | C[C@@H](O)[C@@H]1NC(=O)[C@H](CCCCN)NC(=O)[C@@H](Cc2c[nH]c3ccccc23)NC(=O)[C@H](Cc2ccccc2)NC(=O)[C@@H](NC(=O)[C@H](N)Cc2ccccc2)CSSC[C@@H](C(=O)N[C@H](CO)[C@@H](C)O)NC1=O [Octreotide]
38 | > 46 | Oc1ccnc(O)n1 [URACIL]
39 | > 46 | CC(COc1ccccc1)N[NH3+] (stereo not given) [Phenoxypropazine]
40 | > 46 | CC1CCC(C(C)C)C(=O)C1 (stereo not given) [MENTHONE]
41 | > 46 | O[C@@H](CNC[C@H](O)[C@H]1CCc2cc(F)ccc2O1)[C@@H]1CCc2cc(F)ccc2O1 (racemic) [rac Nebivolol Hydrochloride]
42 | > 46 | Cc1ccccc1N1C(=O)c2cc([S+](N)(=O)[O-])c(Cl)cc2NC1C (stereo not given) [Metolazone]
43 | > 46 | CCC(=O)[N-]S(=O)(=O)c1ccc(-c2c(-c3ccccc3)noc2C)cc1 [Parecoxib sodium]
44 | > 46 | N[S+](=O)([O-])c1ccc(NC(=O)CCC(=O)O)cc1 [SULFASUCCINAMIDUM]
45 | > 46 | Cc1cccc(N(C)C(=S)Oc2ccc3c(c2)CCC3)c1 [TOLINDATE]
46 | > 46 | CC(C)NCC(O)COc1cccc2[nH]ccc12 (stereo not given) [PINDOLOL]
47 | > 46 | Clc1ccc(CS[C@@H](Cn2ccnc2)c2ccc(Cl)cc2Cl)cc1 [Sulconazole nitrate]
48 | > 46 | O=C1CC[C@@H](C(=O)N2CSC[C@H]2C(=O)O)N1 [Pidotimod]
49 | > 46 | CC(C)(CO)[C@@H](O)C(=O)NCCC(=O)NCCSSCCNC(=O)CCNC(=O)[C@H](O)C(C)(C)CO [PANTETHINE]
50 | > 46 | OCCN1CC(O)C(O)C(O)C1CO (stereo not given) [MIGLITOL]
